Assay results reported in PubChem BioAssay AID308 (DTP/NCI, 2004).
Values joined by “and” are separate entries in the source; they are usually repeats but may differ in a detail not shown here. Equal values may be shown once. Toxic doses and inconclusive results are not listed.

Tested on: BDF1 mice, L1210 6-MP/6-TG resistant leukemia ip, survival T/C
Assay: NCI In Vivo Anticancer Drug Screen. Data for tumor model L1210 Leukemia resistant to 6-MP and 6-Thioguanine; NSC 755, NSC 752 (intraperitoneal) in B6D2F1 (BDF1) mice
Conditions: endpoint: mean survival time, higher = longer survival
Protocol: The antitumor activity of compounds was measured in mice bearing transplantable tumors. Survival or tumor size were measured and the results are expressed as the measurement made in the treated group (T) divided by the measurement made in the vehicle treated control group (C). The tumor model used in this assay is L1210 Leukemia resistant to 6-MP and 6-Thioguanine; NSC 755, NSC 752 (intraperitoneal) in B6D2F1 (BDF1) mice

[1] = dose: 0.5 mg/kg/injection, schedule: Q01DX Z (ip), vehicle: carboxymethylcellulose (CMC)
[2] = dose: 0.75 mg/kg/injection, schedule: Q01DX Z (ip), vehicle: carboxymethylcellulose (CMC)
[3] = dose: 1.0 mg/kg/injection, schedule: Q01DX Z (ip), vehicle: carboxymethylcellulose (CMC)
[4] = dose: 2.5 mg/kg/injection, schedule: Q01DX Z (ip), vehicle: carboxymethylcellulose (CMC)
[5] = dose: 25.0 mg/kg/injection, schedule: Q01DX Z (ip), vehicle: saline

SMILES: CC[C@]1(O)C[C@H]2CN(CCc3c([nH]c4ccccc34)[C@@](C(=O)OC)(c3cc4c(cc3OC)N(C=O)[C@H]3[C@@](O)(C(=O)OC)[C@H](OC(C)=O)[C@]5(CC)C=CCN6CC[C@]43[C@@H]65)C2)C1
- T/C (dose: 0.09 mg/kg/injection, schedule: Q01DX015 (ip), vehicle: carboxymethylcellulose (CMC)): 91 % of control and 110 % of control
- T/C (dose: 0.13 mg/kg/injection, schedule: Q01DX015 (ip), vehicle: carboxymethylcellulose (CMC)): 114 % of control and 98 % of control
- T/C (dose: 0.2 mg/kg/injection, schedule: Q01DX015 (ip), vehicle: carboxymethylcellulose (CMC)): 94 % of control and 106 % of control
- T/C (dose: 0.3 mg/kg/injection, schedule: Q01DX015 (ip), vehicle: carboxymethylcellulose (CMC)): 90 % of control and 92 % of control
- T/C (dose: 0.45 mg/kg/injection, schedule: Q01DX015 (ip), vehicle: carboxymethylcellulose (CMC)): 93 % of control

SMILES: Oc1cc(CN(CCCl)CCCl)c(O)cc1CN(CCCl)CCCl
- T/C (dose: 0.5 mg/kg/injection, schedule: Q01DX Z (ip), vehicle: saline): 173 % of control
- T/C (dose: 2.0 mg/kg/injection, schedule: Q01DX Z (ip), vehicle: carboxymethylcellulose (CMC)): 153 % of control and 184 % of control
- T/C (dose: 4.0 mg/kg/injection, schedule: Q01DX Z (ip), vehicle: carboxymethylcellulose (CMC)): 102 % of control and 108 % of control

SMILES: COC12C(COC(N)=O)C3=C(C(=O)C(C)=C(N)C3=O)N1CC1C2N1C (stereo unspecified)
- T/C (dose: 1.3 mg/kg/injection, schedule: Q01DX015 (ip), vehicle: carboxymethylcellulose (CMC)): 166 % of control
- T/C (dose: 1.9 mg/kg/injection, schedule: Q01DX015 (ip), vehicle: carboxymethylcellulose (CMC)): 120 % of control
- T/C (dose: 2.0 mg/kg/injection, schedule: Q01DX015 (ip), vehicle: carboxymethylcellulose (CMC)): 254 % of control
- T/C (dose: 2.9 mg/kg/injection, schedule: Q01DX015 (ip), vehicle: carboxymethylcellulose (CMC)): 181 % of control
- T/C (dose: 3.0 mg/kg/injection, schedule: Q01DX015 (ip), vehicle: carboxymethylcellulose (CMC)): 229 % of control
- T/C (dose: 4.4 mg/kg/injection, schedule: Q01DX015 (ip), vehicle: carboxymethylcellulose (CMC)): 123 % of control
- T/C (dose: 4.5 mg/kg/injection, schedule: Q01DX015 (ip), vehicle: carboxymethylcellulose (CMC)): 189 % of control
- T/C (dose: 6.75 mg/kg/injection, schedule: Q01DX015 (ip), vehicle: carboxymethylcellulose (CMC)): 166 % of control

SMILES: NC(Cc1ccc(N(CCCl)CCCl)cc1)C(=O)O (stereo unspecified)
- T/C [1]: 163 % of control
- T/C [2]: 155 % of control
- T/C [3]: 188 % of control
- T/C [4]: 195 % of control
- T/C (dose: 3.75 mg/kg/injection, schedule: Q01DX Z (ip), vehicle: carboxymethylcellulose (CMC)): 195 % of control
- T/C (dose: 5.0 mg/kg/injection, schedule: Q01DX Z (ip), vehicle: carboxymethylcellulose (CMC)): 155 % of control
- T/C (dose: 7.5 mg/kg/injection, schedule: Q01DX Z (ip), vehicle: carboxymethylcellulose (CMC)): 119 % of control

SMILES: COS(C)(=O)=O
- T/C [5]: 105 % of control
- T/C (dose: 50.0 mg/kg/injection, schedule: Q01DX Z (ip), vehicle: saline): 114 % of control
- T/C (dose: 75.0 mg/kg/injection, schedule: Q01DX Z (ip), vehicle: saline): 116 % of control
- T/C (dose: 100.0 mg/kg/injection, schedule: Q01DX Z (ip), vehicle: saline): 106 % of control

SMILES: Nc1nc(=S)c2[nH]cnc2[nH]1
- T/C (dose: 0.37 mg/kg/injection, schedule: Q01DX Z (ip), vehicle: carboxymethylcellulose (CMC)): 123 % of control
- T/C [1]: 92 % of control
- T/C [2]: 101 % of control
- T/C [3]: 103 % of control
- T/C (dose: 1.25 mg/kg/injection, schedule: Q01DX Z (ip), vehicle: carboxymethylcellulose (CMC)): 104 % of control
- T/C [4]: 95 % of control

SMILES: CCCNc1ncnc2[nH]ncc12
- T/C [5]: 111 % of control

SMILES: Clc1ncnc2c1ncn2C1CCCCO1 (stereo unspecified)
- T/C (dose: 62.0 mg/kg/injection, schedule: Q01DX Z (ip), vehicle: other): 96 % of control
- T/C (dose: 125.0 mg/kg/injection, schedule: Q01DX Z (ip), vehicle: other): 91 % of control
